As usually defined, the EC50 is the concentration giving half of the maximal effect.

Assay [1] concerns granulocyte-macrophage (CFU-GM), erythroid (BFU-E) and multipotential (CFU-GEMM) progenitor cells. Description: Progenitor/stem cell mobilization in mice after single subcutaneous injection. It is filed as in vivo, C3H/HeJ mice. The following applies: 5 mg/kg s.c. As to the method: All experiments were performed in […] mice. […] The progenitors were stimulated to form colonies in vitro with the combination of 1 U/mL rhu EPO, 50 ng/mL rmu SLF, 5% vol/vol pokeweed mitogen mouse spleen cell conditioned medium (PWMSCM), and 0.1 mM hemin. Plates were scored 7 days after incubation at 37° C., 5% CO2, lowered […] and in a humidified chamber.
In the first experiment (data shown in Table 6), mice received a dose of 5 mg/kg- and the number of progenitors in the circulating blood was measured at various time points (0.25, 0.5, 1, 2, 6 and 24 hours).

Assay [2] shares this test system. The assay is described as above. Type of assay: in vivo, C3H/HeJ mice. The following applies: Table 8; progenitor cells per mL of blood; 5 mg/kg s.c.; @ - 60″ (1 h).
Another assay concerns the target T1, wild type CXCR4 (Homo sapiens, UniProt P61073).
T1 construct: expressed in transfected cells; host or cells: Cf2Th (canine thymus cell line lacking CXCR4)
The following applies: wild type CXCR4 in Cf2Th; read-out: EC50 for SDF-1α, calcium flux; cited from earlier work. (In general: Calcium flux is commonly read through the fluorescence of an indicator in the cells.)

Another assay concerns the target T2, E343X CXCR4 variant (Homo sapiens, UniProt P61073).
T2 construct: expressed in transfected cells; host or cells: Cf2Th (canine thymus cell line lacking CXCR4)
The following applies: E343X variant in Cf2Th; read-out: EC50 for SDF-1α, calcium flux; cited from earlier work.

A further assay has as its target T3, R334X CXCR4 variant (Homo sapiens, UniProt P61073).
T3 construct: expressed in transfected cells; host or cells: Cf2Th (canine thymus cell line lacking CXCR4)
The conditions noted are these: R334X variant in Cf2Th; read-out: EC50 for SDF-1α, calcium flux; cited from earlier work.

Where [3] appears, read: Table 8, @ - 60″ (1 h), vs control.
Where [4] appears, read: Table 8, progenitor cells per mL of blood, @ - 60″ (1 h).
[5] abbreviates: comparison, AMD3100 at 1 hour, X4P-001 peak over 0.25-2 hours.

T1 sequence (P61073 whole entry): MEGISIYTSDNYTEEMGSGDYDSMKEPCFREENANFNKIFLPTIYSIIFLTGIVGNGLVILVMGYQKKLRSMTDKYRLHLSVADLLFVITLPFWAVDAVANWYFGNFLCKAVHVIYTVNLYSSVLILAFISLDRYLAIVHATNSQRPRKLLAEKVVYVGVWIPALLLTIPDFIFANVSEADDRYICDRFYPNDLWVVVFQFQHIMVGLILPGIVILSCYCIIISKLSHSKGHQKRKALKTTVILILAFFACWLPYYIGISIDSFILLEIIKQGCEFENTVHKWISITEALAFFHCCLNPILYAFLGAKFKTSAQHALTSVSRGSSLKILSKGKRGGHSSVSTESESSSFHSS

In the case of `c1cc(CN2CCCNCCNCCCNCC2)ccc1CN1CCCNCCNCCCNCC1` [AMD3100, plerixafor, reference compound], in assay [1] (setting [3]), the “BFU (BFU-E), Fold Chg” value amounted to 3.12 fold; the “GEMM (CFU-GEMM), Fold Chg” value was 4.35 fold; the “GM (CFU-GM), Fold Chg” value amounted to 9.11 fold; the “Nucleated Cellularity PBL-LD, Fold Chg” value came out at 1.62 fold. Further, in assay [1] (setting [4]), the “GEMM (CFU-GEMM), Mean” value was 138.5 and the “GM (CFU-GM), Mean” value is 1950.3. In addition, the “Nucleated Cellularity PBL-LD, Mean” value in assay [1] (Table 8 comparison, @ - 60″ (1 h)) was 1.008e+07 mL⁻¹. For the same compound, in assay [1] (setting [5]), the “Maximum fold-increase in BFU-E” value is recorded as 3.12 fold, the “Maximum fold-increase in CFU-GEMM” value was 4.35 fold and the “Maximum fold-increase in CFU-GM” value came to 9.11 fold. For the same compound, the “BFU (BFU-E), Mean” value in assay [2] was 207.7.
With SDF-1α, the EC50 on wild type CXCR4 is 13.6 nM; at E343X CXCR4 variant, 15.3 nM; at R334X CXCR4 variant, 11.3 nM.

These data come from patent publication US11219621B2, “Methods for treating immunodeficiency disease” (X4 Pharmaceuticals, Inc., priority 2015, dated 2022).
